From patent publication US20250074911A1, “MACROCYCLIC BTK INHIBITORS” (Crossfire Oncology Holding B.V., priority 2021, published 2025)

What was measured:
[1] = tested on: wt-REC-1 mantle cell lymphoma cells; assay: Cell proliferation assay wt-REC-1 (ATPlite, 72 hours); format: cell-based; details: 72 h; read-out: IC50 wt-REC-1
Procedure: Results of the BTK […] binding affinity are shown in Table 1 below. • IC50 BTK […]: […] wt-REC-1 mantle cell lymphoma cells were purchased from American Type Culture Collection via Synthego Corporation (cat. no. CRL-3004, ATCC). […] Luminescence was recorded on an Envision multimode reader. The cell signal at the start of incubation was recorded separately in order to distinguish between cell population growth and cell death. In addition, maximum growth was determined by incubation of a duplicate without compound in the presence of 0.3% DMSO. Percentage growth was used as the main y-axis signal. IC50s were fitted by non-linear regression using IDBS XLfitTM5 using a 4-parameter logistic curve, yielding a maximum signal, minimum signal, hill-parameter and IC50. Results of the wt-REC-1 proliferation are shown in Table 1 below. • IC50 wt-REC-1: […]

REC-1 T474I cell lines = assay: Cell proliferation assay REC-1 BTK T474I knock-in cells (ATPlite, 72 hours); format: cell-based; details: Homo sapiens, Rec1; 72 hours; read-out: IC50 REC-1 T474I
Procedure: Cell proliferation assay Generation of BTK […] knock-in cell lines wt-REC-1 cell lines expressing mutant BTK were created at Synthego Corporation. Cell lines expressing BTK […] was generated via CRISPR/Cas9. Monoclonal REC-1 […] cell lines were obtained by single cell cloning. The mutation status of all cell lines was confirmed via sequencing. […] Luminescence was recorded on an Envision multimode reader. The cell signal at the start of incubation was recorded separately in order to distinguish between cell population growth and cell death. In addition, maximum growth was determined by incubation of a duplicate without compound in the presence of 0.3% DMSO. Percentage growth was used as the main y-axis signal.

[2] = tested on: wt-TMD8 diffuse large B-cell lymphoma cells; assay: Cell proliferation assay wt-TMD8 (ATPlite, 120 hours); format: cell-based; details: B-cell; wt-TMD8 cells, 120 hours, ATPlite; read-out: IC50 wt-TMD8
Procedure: Cell proliferation assay wt-TMD8 diffuse large B-cell lymphoma cells were purchased from Tokyo Medical and Dental University and cultured in RPMI-1640 cell culture medium (cat. no. 61870036, Life Technologies), supplemented with 10% (v/v) heat-inactivated fetal bovine calf serum and 1% penicillin/[…]. 1600 cells per well (in 45 μl) were seeded in a white 384-well culture plate (cat. no. 781080, Greiner Bio-One) and allowed to rest for at least 5 hours at 37° C., 95% humidity, and 5% CO2. 5 μl compound solution was added to the cells and incubation was continued for 120 hours (5 days), followed by addition of 24 μl ATPlite 1Step™ (PerkinElmer, Groningen, The Netherlands) solution was added to each well. Luminescence was recorded on an Envision multimode reader. The cell signal at the start of incubation was recorded separately in order to distinguish between cell population growth and cell death. In addition, maximum growth was determined by incubation of a duplicate without compound in the presence of 0.3% DMSO. Percentage growth was used as the main y-axis signal.

[3] = target: full-length wt-BTK enzyme (Homo sapiens (Human), UniProt Q06187); assay: Biochemical kinase assay wt-BTK (IMAP)
Procedure: Biochemical kinase assay wt-BTK To determine the inhibitory activity of compounds on wt-BTK enzyme activity, the IMAP® assay (Molecular Devices) was used. […] After pre-incubation of 1 hour in the dark at room temperature, fluorescein-labeled MBP-derived substrate peptide (Molecular Devices, cat. no. RP 7123) was added, followed by ATP to start the reaction. Final enzyme concentration was 1.2 nM, final substrate concentration 50 nM, and final ATP concentration was 4 μM. The reaction was allowed to proceed for 2 hours at room temperature in the dark. The reaction was stopped by quenching with IMAP progressive binding solution according to the protocol of the manufacturer (Molecular Devices). Fluorescein polarization was measured on an Envision multimode reader (Perkin Elmer, Waltham, MA, U.S.A.). […] Results of the wt-BTK binding affinity are shown in Table 1 below. • IC50 wt-BTK: […]

[4] = target: full-length BTK C481S enzyme (Homo sapiens (Human), UniProt Q06187, C481S); assay: Biochemical kinase assay BTK C481S (IMAP)
Procedure: Biochemical kinase assay BTK […] To determine the inhibitory activity of compounds on BTK C481S enzyme activity, the IMAP® assay (Molecular Devices) was used. […] After pre-incubation of 1 hour in the dark at room temperature, fluorescein-labeled MBP-derived substrate peptide (Molecular Devices, cat. no. RP 7123) was added, followed by ATP to start the reaction. Final enzyme concentration was 1.2 nM final substrate concentration 50 nM, and final ATP concentration was 7 μM. The reaction was allowed to proceed for 2 hours at room temperature in the dark. The reaction was stopped by quenching with IMAP progressive binding solution according to the protocol of the manufacturer (Molecular Devices). Fluorescein polarization was measured on an Envision multimode reader (Perkin Elmer, Waltham, MA, U.S.A.). IC50 were calculated using XLfitTM5 software (ID Business Solutions, Ltd., Surrey, U.K.). Results of the BTK […] binding affinity are shown in Table 1 below. • IC50 BTK […]: […]

Chain of full-length BTK C481S enzyme (Q06187 whole entry C481S): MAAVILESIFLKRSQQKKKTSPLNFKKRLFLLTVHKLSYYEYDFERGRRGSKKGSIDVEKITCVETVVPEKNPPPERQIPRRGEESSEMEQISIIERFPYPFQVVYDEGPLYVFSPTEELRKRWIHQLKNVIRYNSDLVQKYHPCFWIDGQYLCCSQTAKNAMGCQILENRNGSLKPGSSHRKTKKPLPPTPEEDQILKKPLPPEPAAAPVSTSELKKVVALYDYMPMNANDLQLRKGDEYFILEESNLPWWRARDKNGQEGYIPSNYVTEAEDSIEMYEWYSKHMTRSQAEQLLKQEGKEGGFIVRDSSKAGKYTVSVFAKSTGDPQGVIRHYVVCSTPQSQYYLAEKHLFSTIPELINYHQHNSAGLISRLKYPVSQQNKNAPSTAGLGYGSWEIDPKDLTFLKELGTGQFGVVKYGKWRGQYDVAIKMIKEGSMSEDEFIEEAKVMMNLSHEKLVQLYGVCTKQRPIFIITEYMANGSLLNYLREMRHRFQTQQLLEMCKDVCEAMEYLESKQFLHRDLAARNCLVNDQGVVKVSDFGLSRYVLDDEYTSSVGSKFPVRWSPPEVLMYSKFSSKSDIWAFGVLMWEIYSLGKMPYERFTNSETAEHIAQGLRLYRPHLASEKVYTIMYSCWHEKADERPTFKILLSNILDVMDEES
Chain of full-length wt-BTK enzyme (Q06187 whole entry): as the sequence (Q06187 whole entry C481S) above, with S481C counted along it

Row | Compound | IC50 [1] | IC50 (REC-1 T474I cell lines) | IC50 [2] | IC50 [3] | IC50 [4]
1 | CC(=O)N1CC/C=C/c2cnc(N)c3c(-c4ccc(C(=O)Nc5cc(C(F)(F)F)ccn5)cc4)nn(c23)[C@@H]2CCC[C@H](C2)NC(=O)C1 [Example 35] | < 100 nM | 100 to 500 nM | < 100 nM | < 5 nM | < 5 nM
2 | CC(=O)N1CC/C=C/c2cnc(N)c3c(-c4ccc(C(=O)Nc5cc(C(F)(F)F)ccn5)cc4)nn(c23)[C@@H]2CCC[C@H](C2)NC(=O)CC1 [Example 36] | < 100 nM | 100 to 500 nM | < 100 nM | < 5 nM | < 5 nM
3 | Nc1ncc2c3c1c(-c1ccc(C(=O)Nc4cc(C(F)(F)F)ccn4)cc1)nn3[C@@H]1CCC[C@H](C1)NC(=O)CCCCC/C=C/2 [Example 37] | < 100 nM | < 100 nM | < 100 nM | < 5 nM | < 5 nM
4 | CN1CC/C=C/c2cnc(N)c3c(-c4ccc(C(=O)Nc5cc(C(F)(F)F)ccn5)cc4)nn(c23)[C@@H]2CCC[C@H](C2)NC(=O)CC1 [Example 38] | < 100 nM | < 100 nM | < 100 nM | < 5 nM | < 5 nM
5 | CN1CCC/C=C/c2cnc(N)c3c(-c4ccc(C(=O)Nc5cc(C(F)(F)F)ccn5)cc4)nn(c23)[C@@H]2CCC[C@H](C2)NC(=O)C1 [Example 41] | < 100 nM | < 100 nM | < 100 nM | < 5 nM | < 5 nM
6 | Nc1ncc2c3c1c(-c1ccc(C(=O)Nc4cc(C(F)(F)F)ccn4)cc1)nn3[C@@H]1CCC[C@H](C1)NC(=O)[C@H]1CCN1CC/C=C/2 [Example 42] | < 100 nM | 100 to 500 nM | < 100 nM | < 5 nM | < 5 nM
7 | C[C@H]1/C=C/c2cnc(N)c3c(-c4ccc(C(=O)Nc5cc(C(F)(F)F)ccn5)cc4)nn(c23)[C@@H]2CCC[C@H](C2)NC(=O)CCCN1C [Example 43] | 100 to 1000 nM | 500 to 10000 nM | < 100 nM | < 5 nM | < 5 nM
8 | C[C@@H]1CCn2nc(-c3ccc(C(=O)Nc4cc(C(F)(F)F)ccn4)cc3)c3c(N)ncc(c32)/C=C/CN2CC[C@H]2C(=O)N1 [Example 55] | 100 to 1000 nM | 500 to 10000 nM | < 100 nM | < 5 nM | < 5 nM
9 | C[C@@H]1CCn2nc(-c3ccc(C(=O)Nc4cc(C(F)(F)F)ccn4)cc3)c3c(N)ncc(c32)/C=C/CCCCCC(=O)N1 [Example 60] | < 100 nM | 500 to 10000 nM | < 100 nM | < 5 nM | < 5 nM
10 | C[C@@H]1CCn2nc(-c3ccc(C(=O)Nc4cc(C(F)(F)F)ccn4)cc3)c3c(N)ncc(c32)/C=C/CCOCCC(=O)N1 [Example 69] | 100 to 1000 nM | 100 to 500 nM | < 100 nM | < 5 nM | < 5 nM
11 | C[C@@H]1CCn2nc(-c3ccc(C(=O)Nc4cc(C(F)(F)F)ccn4)cc3)c3c(N)ncc(c32)/C=C/CCCOCC(=O)N1 [Example 70] | < 100 nM | 500 to 10000 nM | < 100 nM | < 5 nM | < 5 nM
12 | C[C@@H]1CCn2nc(-c3ccc(C(=O)Nc4cc(C(F)(F)F)ccn4)cc3)c3c(N)ncc(c32)/C=C/C[C@@H](C)OCCC(=O)N1 [Example 72] | < 100 nM | 500 to 10000 nM | < 100 nM | < 5 nM | < 5 nM
